We go through ten molecules from patent publication US5633277A, “Sulfonamide aminomethylene derivatives as immunosuppressants” (Miles Inc., priority 1995, dated 1997).

pIC50: −log10 of the molar value. Values joined by “and” are separate entries in the source; they are usually repeats but may differ in a detail not shown here. Equal entries are not always repeated. A value given as a limit tells only on which side of the number the result lay.

The subject of assay [1] is human T-cells. The assay can be described thus: Suppression of Human T-Cell Proliferation Assay (mitogen-induced, [3H]-thymidine incorporation). Conditions: for pIC50: Homo sapiens, T-cell, 72 hours incubation, mitogen stimulated, read-out: IC50 (inhibition of [3H]-thymidine incorporation of T-cells by 50%). It counts as cell-based. The source says: 2) Human T Lymphocyte Inhibition
Inhibition of mitogen-induced T-cell proliferation can be used to profile immunosuppressive activity of test compounds. In the description of the assay which follows, mitogen-induced T-cell proliferation was used to test the inhibitory potencies of select compounds of the present invention.
In an assay similar to that described by Bradley in Mishell et al. (Eds.), 1980, Selected Methods in Cellular Immunology, pp 156-161, W. H. Freeman & Co., San Fransisco, Calif., T-cells were stimulated by incubation with phytohemagglutinin (PPIA) which binds to cell surface molecules, including the T-cell receptor. This stimulation results in proliferation which can be measured by incorporation of [^3 H]-thymidine into cellular DNA.
The immunosuppressive properties of the compounds of the present invention can be determined by adding various concentrations of the compounds to these cultures and measuring the effect on T-cell proliferation.
Suppression of Human T-Cell Proliferation Assay
Fresh LeukoPaks were obtained from the New York Blood Center, New York, N.Y. The cells, including erythrocytes and leukocytes, were diluted with Hank's Balanced Salt Solution (HBSS) (GIBCO, Grand Island, N.Y.) and layered over Lymphoprep (Nycomed Pharma AS, Oslo, Norway) in sterile 50 ml conical centrifuge tubes. Lymphocytes were isolated at the Hank's/Nycomed interface after centrifugation at 2000×g, 4° C. for 15 min. The lymphocytes were washed with Minimal Essential Medium (GIBCO) containing 2% fetal bovine serum (FBS) (Sigma Chemical Co., St. Louis, Mo.), 1% HEPES buffer (GIBCO) and 1% Penicillin-Stretomycin solution (GIBCO).
T-cells were further purified essentially by sheep erythrocyte (SRBC) rosetting as described by Morimoto et al., 1983, J. Immunol. 130:157. The isolated lymphocytes were adjusted to 2×10^7 cells/ml and 5 ml aliquots of the cell suspension were incubated for 10 minutes at room temperature with 5 ml of a 5% SRBC (Cappel, Organon Technika Corp., West Chester, Pa.) suspension. The cells were gently pelleted by centrifugation at 300 rpm for 10 minutes, followed by a 1 hour incubation at room temperature to allow rosette formation. The cells were gently resuspended,layered over Lymphoprep and centrifuged for 30 minutes at 500×g. The pellet, containing rosetted T-cells and SRBC was treated with ice cold buffered ammonium chloride (GIBCO) to lyse the erythrocytes. T-cells were washed twice with HBSS.
Purified T-cells were resuspended at 2×10^6 cells/ml in complete culture medium composed of RPMI-1640 (Whittaker Bioproducts, Walkerville, Md.) with 10% FBS (Sigma), 2 mM L-glutamine (GIBCO), 1% Penicillin-Streptomycin (GIBCO) and 15 mM HEPES (GIBCO). In 96-well plates (Becton Dickinson, Lincoln Park, N.J.), 0.1 ml aliquots of T-cell suspension were mixed with 0.05 ml of 40 μg/ml PPIA-M (Sigma). The compounds of this invention were dissolved in dimethylsulfoxide at 10 mM and various dilutions in complete medium were added in duplicate wells (0.05 ml/well). The plates were incubated at 37° C. in a humidified atmosphere of 5% carbon dioxide and 95% air for 72 hours.
Proliferation was assessed by measurement of [3H]-thymidine incorporation. During the last 6 hours of incubation, the cells were pulse labelled with 1 μCi/well of [3H]-thymidine (New England Nuclear, Boston, Mass.). The cells were harvested onto glass fiber paper using a plate harvester and the radioactivity incorporated into cellular DNA corresponding to individual wells was measured by standard liquid scintillation counting methods. The mean counts per minute (CPM) of replicate wells was calculated and linear regression analysis of mean CPM versus compound concentration was used to determine the concentration of compound which would inhibit [^3 H]-thymidine incorporation of T-cells by 50% (IC50).
Background: Incorporation of labelled thymidine or its analogues reports DNA synthesis.

Assay [2] has as its system NF-AT. The assay can be described thus: NF-AT Inhibition Assay (NF-AT directed β-galactosidase expression in stimulated FGL-5 cells). It counts as cell-based. Conditions: phorbol ester and ionomycin stimulated, 16-18 hours. The procedure:
Stimulation of T-cells leads to the appearance of several transcription factors, including one designated "NF-AT". These factors are involved in regulation of gene expression required for immunologic activation. Some of these transcription factors appear to have functions in a wide variety of cell types. By contrast, NF-AT is found primarily in T-cells and its role is restricted to early gene activation.
Inhibition of NF-AT activity is measured using FGL-5 cells. FGL-5 is a cloned line of stably transfected Jurkat T-cells that contain a construct in which three tandem copies of the NF-AT DNA binding site direct transcription of the lacZ gene, encoding β-galactosidase (Fiering et al., 1990, Genes & Development 4:1823). When these cells are stimulated with phorbol esters which activate protein kinase C and calcium ionophore to raise the intracellular calcium concentration, transcriptionally active NF-AT is produced. In T-cells, this normally leads to the expression of IL-2, T-cell growth factor. However, in FGL-5 cells NF-AT activation leads to the production of β-galactosidase which can be detected using an appropriate substrate.
NF-AT Inhibition Assay Directed β-Galactosidase Expression
This assay was performed essentially as described (Bierer et al., 1990, Proc. Natl. Acad. Sci. 87:9231). FGL-5 cells were maintained in medium consisting of RPMI-1640 with 10% FBS, 2 mM L-glutamine, 1% Penicillin- Streptomycin and 15 mM HEPES buffer. The assays were done with exponentially growing cells whose density was not greater than 0.5 million cells/ml. The cells were resuspended to 3 million cells/ml in medium and 0. 1 mi was added to wells of a 96-well plate.
The compounds of the present invention were dissolved in either ethanol or dimethylsulfoxide at 10 mM and 0.05 ml/well of various dilutions in medium were added to cells in duplicate wells. Treatment controls consisted of duplicate wells to which 0.05 ml/well of either medium, ethanol or dimethylsulfoxide was added. The ethanol and dimethyl sulfoxide were at the same concentration as was used for the compounds. Cells were incubated with compounds at room temperature for 10-15 minutes. Phorbol dibutyrate (Sigma) and Ionomycin (Calbiochem) were dissolved at 50 μg g/mi and 2 mM, respectively and stored at -70° C.
FGL-5 cells were stimulated by diluting these reagents with medium to 200 ng/ml and 8 μM, respectively and adding of 0.05 ml/well. For unstimulated cell controls, 0.05 mi/well of medium was added to duplicate wells. The plates were incubated overnight (16-18 hours) at 37° C. in a humidified atmosphere of 5% CO2 and air. β-galactosidase activity was measured as the fluorescence generated by the cleavage of 4-methyl umbelliferyl-β-D-galactoside (Sigma) at the β-galactoside bond. After overnight incubation, the cells were centrifuged at 500×g for 3 minutes in the 96-well plates and washed 3 times with PBS. The cells were then resuspended in 0. 18 mi/well of reaction medium containing 100 mM sodium phosphate buffer, pH 7.0, 10 mM potassium chloride, 1 mM magnesium sulfate, 0.1% Triton X-100 (Pierce, Rockford, Ill.), and 0.5 mM 4-methylumbelliferyl-β-D- galactoside.
The fluorescence at 460 nm using 355 nm excitation was measured at intervals over 1-2 hours (during which fluorescence increased linearly with time) with a LS50 Luminescence Spectrometer (Perkin Elmer).
The percent inhibition by each concentration of the compounds was calculated as: [formula]
The values of the concentration of compounds required for 50% inhibition (IC50) were determined by linear regression analysis of the percent inhibition at various compound concentrations.

As to `CC(C)C[C@@H](CN1CCC[C@H]1C(=O)NCCCCc1ccccc1)NS(=O)(=O)CC12CCC(CC1=O)C2(C)C` (single isomer, unassigned) [Example 7], the pIC50 in assay [1] was 5.70; in assay [2], less than 4.82.
Take `CC(C)C[C@@H](CN1CCC[C@H]1C(=O)NCCCCc1ccccc1)NS(C)(=O)=O` [Example 1, 1-[2-(S)-Methanesulfonylamino-4-methylpentyl]-L-proline 4-Phenylbutylamide]: in assay [1], the “inhibition of mitogen-induced T-cell proliferation (in words)” value is “inhibited mitogen induced T-cell proliferation” and the pIC50 was 5.70. Moreover, the pIC50 in assay [2] was ≥ 4.96 and 5.05.
On to `Cc1ccc(S(=O)(=O)N[C@@H](CC(C)C)CN2CCC[C@H]2C(=O)NCCCCc2ccccc2)cc1` [Example 2, 1-[2-(S)-(Toluene-4-sulfonylamino)-4-methylpentyl]-L-proline 4-Phenylbutylamide], for which the pIC50 in assay [1] was 5.10; in assay [2], 4.57.
`CC(C)C[C@@H](CN1CCC[C@H]1C(=O)NCCCCc1ccccc1)NS(=O)(=O)c1cccc2cccnc12` [Example 3, 1-[2-(S)-(Quinoline-8-sulfonylamino)-4-methylpentyl]-L-proline 4-Phenylbutylamide]: in assay [1], the “inhibition of mitogen-induced T-cell proliferation (in words)” value is recorded as “inhibited mitogen induced T-cell proliferation” and the pIC50 was 5.30. The pIC50 in assay [2] was ≥ 4.96 and 4.96.
Turning to `CC(=O)Nc1nc(C)c(S(=O)(=O)N[C@@H](CC(C)C)CN2CCC[C@H]2C(=O)NCCCCc2ccccc2)s1` [Example 4, 1-[2-(S)-(2-Acetylamino-4-methyl-S-thiazolesulfonylamino)-4-methylpentyl]-L -proline 4-Phenylbutylamide], the results for the pIC50 in assay [1] and in assay [2] were 5.70 and 4.62, respectively.
For `CC(C)C[C@@H](CN1CCC[C@H]1C(=O)NCCCCc1ccccc1)NS(=O)(=O)c1cccs1` [Example 5, 1-[2-(S)-(Thiophene-2-sulfonylamino)-4-methylpentyl]-L-proline 4-Phenylbutylamide], in that order: 5.52 and 4.62.
For `CC(C)C[C@@H](CN1CCC[C@H]1C(=O)NCCCCc1ccccc1)NS(=O)(=O)/C=C/c1ccccc1` [Example 6, 1-[2-(S)-(2-phenyl-ethenesulfonylamino)-4-methylpentyl]-L-proline 4-Phenylbutylamtde], in that order: 5.30 and less than 4.82.
On to `CC(C)C[C@@H](CN1CCC[C@H]1C(=O)NCCCCc1ccccc1)NS(=O)(=O)c1ccc(-c2ccon2)s1` [Example 8, 1-[2-(S)-(5 - [Isoxazol-25-yl]-thiophene-2-sulfonylamino)-4-methylpentyl]-L-proline 4-Phenylbutylamide], for which the pIC50 in assay [1] was 6.00; in assay [2], less than 4.82.
On the same counts, the results for `CC(C)C[C@@H](CN1CCC[C@H]1C(=O)NCCCCc1ccccc1)NS(=O)(=O)c1c(C(C)C)cc(C(C)C)cc1C(C)C` [Example 10, 1-[2-(S)-(2',4',6'-Triisopropylbenzenesulfonylamino)-4-methylpentyl]-L-proline 4-Phenylbutylamide] are 5.40 and less than 4.82.
For `CC[C@H](C)[C@H](NC(=O)[C@@H]1CCCCN1C[C@@H](NS(C)(=O)=O)[C@@H](C)CC)C(=O)NCc1ccccc1` [Example 11], in that order: less than 4.82 and less than 4.82.
